# Experimental data reported in US20160101148A1, “TREATMENT AND PREVENTION OF BACTERIAL SKIN INFECTIONS USING ORITAVANCIN” (priority 2013, published 2016).
# Marks after values point to notes of the source that are not given here.
# Key:
# [1] = tested on: S. aureus strains (14 mecC MRSA, 2 mecA MRSA, ATCC 29213 MSSA); test: In vitro time-kill assays at free peak and free trough concentrations; format: cell-based, Staphylococcus aureus
# Procedure: Viable cell count was determined by serial dilution plating, including the use of 25 g/L charcoal suspension to limit antibiotic carryover. […] Time-kill assays were repeated at least twice independently; results presented are from a representative experiment.
# Doubling dilution concentrations of comparator agents were likewise chosen to approximate their fCmax and fCmin levels in plasma when administered at approved dosages for complicated skin and skin structure infections, using pharmacokinetic data and protein binding values from their respective package inserts (DAP [Cubicin®]; LZD [Zyvox®]; VAN [Vancocin®]; Table 3).
# [2] = tested on: ABSSSI caused by susceptible gram-positive bacteria, including MRSA; test: SOLO II Phase 3 trial, efficacy; format: in vivo, human
# Source text: (§1) Complete results were obtained from a phase 3 clinical trial program of oritavancin (SOLO), which investigated the drug for the treatment of acute bacterial skin and skin structure infections (ABSSSI) caused by susceptible gram-positive bacteria, including methicillin-resistant Staphylococcus aureus (MRSA). SOLO I and SOLO II clinical trials were identical multicenter, double-blind, randomized clinical trials.
# In SOLO II, all protocol-specified primary and secondary efficacy endpoints were met. […] The efficacy was similar in the overall population and in those patients with microbiologically confirmed MRSA infections.
# [3] = tested on: ABSSSI caused by susceptible gram-positive bacteria, including MRSA; test: SOLO I and SOLO II combined, efficacy; format: in vivo, human; settings: for FDA primary endpoint: Cessation of spread, absence of fever, no rescue antibiotics / ≧20% reduction of lesion area / FDA primary endpoint: Cessation of spread, absence of fever, no rescue antibiotics, number of patients / ≧20% reduction of lesion area, number of patients / % Difference (95% CI), FDA primary endpoint / % Difference (95% CI), ≧20% reduction of lesion area / EMA primary endpoint: Investigator-assessed clinical cure / EMA primary endpoint: Investigator-assessed clinical cure, number of patients / % Difference (95% CI), investigator-assessed clinical cure: SOLO I and SOLO II combined; for FDA primary endpoint: Cessation of spread, absence of fever, no rescue antibiotics / ≧20% reduction of lesion area / FDA primary endpoint: Cessation of spread, absence of fever, no rescue antibiotics, number of patients / ≧20% reduction of lesion area, number of patients / % Difference (95% CI), FDA primary endpoint / % Difference (95% CI), ≧20% reduction of lesion area: ECE; for % Difference (95% CI), FDA primary endpoint / % Difference (95% CI), ≧20% reduction of lesion area / % Difference (95% CI), investigator-assessed clinical cure: oritavancin vs vancomycin; for EMA primary endpoint: Investigator-assessed clinical cure / EMA primary endpoint: Investigator-assessed clinical cure, number of patients / % Difference (95% CI), investigator-assessed clinical cure: PTE
# Source text: as §1
# In microbiologically confirmed MRSA patients, efficacy was similar in both treatment groups; however, a higher proportion of MRSA-infected patients in the oritavancin group achieved the endpoint of greater than or equal to 20% reduction of lesion area at ECE (p value=0.032). Under the Special Protocol Assessment (SPA) agreed with the FDA, the protocols pre-specified that MRSA patients from the SOLO studies would be pooled for the evaluation of efficacy.
# The combined SOLO studies represented 1,987 patients in an intent-to-treat population for evaluation of oritavancin in the treatment of ABSSSI in controlled clinical trials and assessed one of the largest subsets of patients with documented MRSA infection (405 patients).
# [4] = confirmed MRSA, Microbiological ITT, ECE
# [5] = confirmed MRSA, Microbiological ITT, ECE, oritavancin n = 100, vancomycin n = 101
# [6] = mITT, ECE, oritavancin n = 503, vancomycin n = 502
# [7] = mITT, ECE, oritavancin vs vancomycin
# [8] = confirmed MRSA, MicroITT, oritavancin n = 204, vancomycin n = 201
# [9] = mITT, oritavancin n = 978, vancomycin n = 981
compound,measurement,setting,value
"CN[C@H](CC(C)C)C(=O)N[C@H]1C(=O)N[C@@H](CC(N)=O)C(=O)N[C@H]2C(=O)N[C@H]3C(=O)N[C@H](C(=O)N[C@H](C(=O)O)c4cc(O)cc(O)c4-c4cc3ccc4O)[C@H](O[C@H]3C[C@](C)(N)[C@@H](O)[C@H](C)O3)c3ccc(c(Cl)c3)Oc3cc2cc(c3O[C@@H]2O[C@H](CO)[C@@H](O)[C@H](O)[C@H]2O[C@H]2C[C@](C)(NCc3ccc(-c4ccc(Cl)cc4)cc3)[C@@H](O)[C@H](C)O2)Oc2ccc(cc2Cl)[C@H]1O [Oritavancin, N^DISACC-(4-(4-chlorophenyl)benzyl)A82846B]",Time to cidality (≧3 log decrease),"[1]; 78085 (mecC), oritavancin ƒCmax 16 mg/L",5-10 min
same,Time to cidality (≧3 log decrease),"[1]; 78085 (mecC), oritavancin ƒCmin 2 mg/L",10-15 min
same,Time to cidality (≧3 log decrease),"[1]; 78651 (mecC), oritavancin ƒCmax 16 mg/L",5-10 min
same,Time to cidality (≧3 log decrease),"[1]; 78651 (mecC), oritavancin ƒCmin 2 mg/L",10-15 min
same,Time to cidality (≧3 log decrease),"[1]; ATCC 29213 (MSSA), oritavancin ƒCmax 16 mg/L",5-10 min
same,Time to cidality (≧3 log decrease),"[1]; ATCC 29213 (MSSA), oritavancin ƒCmin 2 mg/L",10-15 min
same,Time to cidality (≧3 log decrease),"[1]; ATCC 33591 (mecA), oritavancin ƒCmax 16 mg/L",5-10 min
same,Time to cidality (≧3 log decrease),"[1]; ATCC 33591 (mecA), oritavancin ƒCmin 2 mg/L",10-15 min
same,Time to cidality (≧3 log decrease),"[1]; ATCC 43300 (mecA), oritavancin ƒCmax 16 mg/L",5-10 min
same,Time to cidality (≧3 log decrease),"[1]; ATCC 43300 (mecA), oritavancin ƒCmin 2 mg/L",5-10 min
same,Efficacy versus vancomycin for ECE and PTE endpoints,[2],non-inferior to vancomycin
same,"FDA primary endpoint: Cessation of spread, absence of fever, no rescue antibiotics",[2]; [4],82.0%
same,≧20% reduction of lesion area,[2]; [4],96.0%
same,"FDA primary endpoint: Cessation of spread, absence of fever, no rescue antibiotics, number of patients",[2]; [5],82
same,"≧20% reduction of lesion area, number of patients",[2]; [5],96
same,EMA primary endpoint: Investigator-assessed clinical cure,"[2]; confirmed MRSA, Microbiological ITT, PTE",84.0%
same,"EMA primary endpoint: Investigator-assessed clinical cure, number of patients","[2]; confirmed MRSA, Microbiological ITT, PTE, oritavancin n = 100, vancomycin n = 101",84
same,"FDA primary endpoint: Cessation of spread, absence of fever, no rescue antibiotics","[2]; mITT, ECE",80.1%
same,≧20% reduction of lesion area,"[2]; mITT, ECE",85.9%
same,"FDA primary endpoint: Cessation of spread, absence of fever, no rescue antibiotics, number of patients",[2]; [6],403
same,"≧20% reduction of lesion area, number of patients",[2]; [6],432
same,"% Difference (95% CI), FDA primary endpoint",[2]; [7],"−2.7 (−7.5, 2.0) %"
same,"% Difference (95% CI), ≧20% reduction of lesion area",[2]; [7],"0.6 (−3.7, 5.0) %"
same,EMA primary endpoint: Investigator-assessed clinical cure,"[2]; mITT, PTE",82.7%
same,"EMA primary endpoint: Investigator-assessed clinical cure, number of patients","[2]; mITT, PTE, oritavancin n = 503, vancomycin n = 502",416
same,"% Difference (95% CI), investigator-assessed clinical cure","[2]; mITT, PTE, oritavancin vs vancomycin","2.2 (−2.6, 7.0) %"
same,"FDA primary endpoint: Cessation of spread, absence of fever, no rescue antibiotics","[3]; confirmed MRSA, MicroITT",81.4%
same,≧20% reduction of lesion area,"[3]; confirmed MRSA, MicroITT",93.1%
same,"FDA primary endpoint: Cessation of spread, absence of fever, no rescue antibiotics, number of patients",[3]; [8],166
same,"≧20% reduction of lesion area, number of patients",[3]; [8],190
same,"% Difference (95% CI), FDA primary endpoint","[3]; confirmed MRSA, MicroITT","0.8 (−6.9, 8.4) %"
same,"% Difference (95% CI), ≧20% reduction of lesion area","[3]; confirmed MRSA, MicroITT, p value = 0.032","6.1 (0.5, 11.6)* %"
same,EMA primary endpoint: Investigator-assessed clinical cure,"[3]; confirmed MRSA, MicroITT",83.3%
same,"EMA primary endpoint: Investigator-assessed clinical cure, number of patients",[3]; [8],170
same,"% Difference (95% CI), investigator-assessed clinical cure","[3]; confirmed MRSA, MicroITT","−0.7 (−7.9, 6.4) %"
same,"FDA primary endpoint: Cessation of spread, absence of fever, no rescue antibiotics",[3]; mITT,81.2%
same,≧20% reduction of lesion area,[3]; mITT,86.4%
same,"FDA primary endpoint: Cessation of spread, absence of fever, no rescue antibiotics, number of patients",[3]; [9],794
same,"≧20% reduction of lesion area, number of patients",[3]; [9],845
same,"% Difference (95% CI), FDA primary endpoint",[3]; mITT,"0.2 (−3.3, 3.7) %"
same,"% Difference (95% CI), ≧20% reduction of lesion area",[3]; mITT,"2.3 (−0.9, 5.4) %"
same,EMA primary endpoint: Investigator-assessed clinical cure,[3]; mITT,81.2%
same,"EMA primary endpoint: Investigator-assessed clinical cure, number of patients",[3]; [9],794
same,"% Difference (95% CI), investigator-assessed clinical cure",[3]; mITT,"1.0 (−2.5, 4.5) %"
same,Efficacy versus vancomycin for ECE and PTE endpoints,[3]; combined SOLO trials,non-inferior to vancomycin
